# Experimental data as given in patent US8889650B2, “Antimelancholic medicine prepared with jujube camp materials” (Beijing Wonner Biotech, Ltd. Co., priority 2007, dated 2014).
# Columns and labels:
# ICR mice [1] = experiment: Mouse tail-hanging experiment; format: in vivo
# Excerpt: Experiment 1: The Influence of Embodiment 3 in the Mouse Tail-Hanging Experiment 1.1 Experimental animals: ICR mice, male, 22.0±2 g of body weight, secondary, were provided by the Experimental Animal Science Department of Capital Medical University, Beijing. 1.2 Experiment pharmaceuticals: The pharmaceutical of Embodiment 3 was provided by Beijing Wonner Biotech. Ltd. Co., and Paroxetine (Paxil) was the product of Zhong Mei Tianjin Smith Kline pharmaceuticals Co. Ltd. 1.4 Dose designs: 1. High dose of Embodiment 3 (5 mg/kg/d); 2. middle dose of Embodiment 3 (2.5 mg/kg/d); and 3. low dose of Embodiment 3 (1.25 mg/kg/d). 1.5.1 Group division and administration of drug: The mice were grouped randomly, with 10 mice per group. 1. High dose of Embodiment 3 (5 mg/kg, per oral (P.O.), administered for 7 days); 2. middle dose of Embodiment 3 (2.5 mg/kg, P.O., administered for 7 days); 3. low dose of Embodiment 3 (1.25 mg/kg, P.O., administered for 7 days); 4. Paroxetine (3 mg/kg, P.O., administered for 7 days); and 5. physiological saline (P.O.). After 1 hour of the last drug administration, the mouse tail-hanging experiment was proceeded. […] The time of non-movement of the mouse for the last 5 minutes was recorded. 1.5.3 Statistic calculation: The experimental data are represented as X±SD , and the experimental result was calculated as analysis of variance (ANOVA) by SPSS 11.5 statistic software.
# ICR mice [2] = experiment: Mouse swimming by compulsion experiment; format: in vivo
# Excerpt: Experiment 2: The Influence of Embodiment 3 in the Mouse Swimming by Compulsion Experiment 2.1 Experimental animals: ICR mice, male, 22.0±2 g body weight, secondary, were provided by the Experimental Animal Science Department of Capital Medical University, Beijing. 2.2 Experiment pharmaceuticals: The pharmaceutical of Embodiment 3 was provided by Beijing Wonner Biotech. Ltd. Co., and Paroxetine (Paxil) was the product of Zhong Mei Tianjin Smith Kline pharmaceuticals Co. Ltd. 2.4 Dose designs: 1. High dose of Embodiment 3 (5 mg/kg/d); 2. middle dose of Embodiment 3 (2.5 mg/kg/d); and 3. low dose of Embodiment 3 (1.25 mg/kg/d). 2.5.1 Group division and administration of drug: The mice were grouped randomly, with 10 mice per group. 1. High dose of Embodiment 3 (5 mg/kg, P.O., administered for 7 days); 2. middle dose of Embodiment 3 (2.5 mg/kg, P.O., administered for 7 days); 3. low dose of Embodiment 3 (1.25 mg/kg, P.O., administered for 7 days); 4. Paroxetine (3 mg/kg, P.O., administered for 7 days); and 5. physiological saline (P.O.). […] The accumulative time of non-movement of the mouse in the water for the last 5 minutes was recorded. 2.5.3 Statistic calculation: The experimental data are represented as X±SD, and the experimental result was calculated as ANOVA by SPSS 11.5 statistic software.
compound,measurement,setting,value
Fc1ccc([C@@H]2CCNC[C@H]2COc2ccc3c(c2)OCO3)cc1 [Paroxetine],Time of non-movement,"ICR mice [1]; Paroxetine 3 mg/kg P.O. for 7 days, tail hung 6 min, last 5 min recorded, 1 hour after last administration, X±SD",67.59 ± 39.09 s
same,Effect on time of non-movement after the mouse's tail was hung (conclusion),"ICR mice [1]; high and middle doses of Embodiment 3, Paroxetine, significant in comparison with the physiological saline control",decreased the time of non-movement
same,Effect on time of non-movement in the mouse swimming by compulsion test (conclusion),"ICR mice [2]; high dose of Embodiment 3, Paroxetine",decreased the time of non-movement
same,immobility time,"ICR mice [2]; table title: time of non-movement in swimming by compulsion, Paroxetine 3 mg/kg P.O. for 7 days, 25° C. water, last 5 minutes, X±SD",83.4 ± 40.7 s
